The source of these data is US8334286B2, “Substituted pyrrolo[1,2-A] pyrazines, compositions containing these, processes of making these, and uses thereof” (Neurotune AG, priority 2008, dated 2012).

SMILES strings stand for the structures.

The subject of series [1] is MIA-induced hyperalgesia. Description: MIA-induced hyperalgesia in the rat (incapacitance test), osteoarthritic pain. The class given is in vivo. Conditions: MIA-treated rats, grams of the right paw, mean ± S.E.M. As for the experimental part: In all methods, paw mechanical sensitivity was determined using either the paw pressure test or the incapacitance test. […] Osteoarthritis was induced by a single administration of 2 mg (in a volume of 25 μl) of monosodium iodoacetate (MIA) into the left knee joint of anaesthetized rats (male adult Sprague Dawley rats, 150-200 g, supplier Harlan) (Fernihough J. 2004, Pain 112:83-93). This treatment induces the progressive degeneration of the joint and the development of hyperalgesia, mimicking at the histological and behavioral levels what observed in humans. Pharmacological test was performed 7 days after treatment.

Series [2] concerns paclitaxel-induced hyperalgesia. Description: Paclitaxel-induced hyperalgesia in the rat (paw-pressure test). The class given is in vivo. Conditions: PCT-treated rats, mean ± S.E.M.; for Mechanical threshold (g), After Treatment 15 min: 15 min after treatment; for Mechanical threshold (g), After Treatment 30 min: 30 min after treatment; for Mechanical threshold (g), After Treatment 45 min: 45 min after treatment. Here is the method: In all methods, paw mechanical sensitivity was determined using either the paw pressure test or the incapacitance test. The paw pressure test utilizes a Randall & Selitto apparatus, exerting a force that increases at constant rate (32 g/s). The stimulus at which rats withdrawn the paw was evaluated before and at different times after treatment. Results represent the mean of mechanical thresholds expressed as grams. To avoid any possible damage to the animal paw the maximum applied force was fixed at 240 g. Peripheral neuropathy is induced by repeated administration of vincristine, paclitaxel or oxaliplatin to adult male Sprague-Dawley rats (150-200 g, supplier Harlan). The following protocols were used respectively: • Vincristine: the drug was injected by intravenous route at the dose of 150 μg/kg. The treatment was performed every 2 days, for 5 times, until a cumulative dose of 750 μg/kg was reached. Paw pressure test was performed 4 days after the last injection (Marchand F. et al. 2003, Brain Res. 980:117-120). • Paclitaxel: paclitaxel (PCT) neuropathy was induced by intraperitoneal administration of 0.5 mg/kg once a day, on days 1, 3, 5 and 8. Cumulative paclitaxel dose was 2 mg/kg. The pharmacological test was performed 14-18 days after the last paclitaxel injection (Polomano R. C. et al. 2001, Pain 94:293-304). • Oxaliplatin: 2.4 mg/kg were injected by intraperitoneal route for 5 consecutive days followed by 2 days suspension (one cicle). A total of 3 cycles was performed, reaching a cumulative dose of 36 mg/kg (Cavaletti G. 2001, Eur. J. Cancer 37:2457-2463). The test was performed 48 h after the last oxaliplatin injection. 2. Osteoarthritic Pain

Series [3] relates to MIA-induced hyperalgesia. The series is described as follows: MIA-induced hyperalgesia in the rat (paw-pressure test), osteoarthritic pain. The class given is in vivo. To be noted: MIA-treated rats, mean ± S.E.M. Here is the method: In all methods, paw mechanical sensitivity was determined using either the paw pressure test or the incapacitance test. The paw pressure test utilizes a Randall & Selitto apparatus, exerting a force that increases at constant rate (32 g/s). The stimulus at which rats withdrawn the paw was evaluated before and at different times after treatment. Results represent the mean of mechanical thresholds expressed as grams. To avoid any possible damage to the animal paw the maximum applied force was fixed at 240 g. Osteoarthritis was induced by a single administration of 2 mg (in a volume of 25 μl) of monosodium iodoacetate (MIA) into the left knee joint of anaesthetized rats (male adult Sprague Dawley rats, 150-200 g, supplier Harlan) (Fernihough J. 2004, Pain 112:83-93). This treatment induces the progressive degeneration of the joint and the development of hyperalgesia, mimicking at the histological and behavioral levels what observed in humans. Pharmacological test was performed 7 days after treatment.

Setting [4] is: 3 mg/kg i.v., 15 min after treatment.
Setting [5] is: 3 mg/kg i.v., 30 min after treatment.
Where [6] appears, read: 3 mg/kg i.v., 45 min after treatment.
Setting [7] is: before treatment (basal), group 3 mg/kg i.v.

In the case of `O=C1CC[C@H]2CN(S(=O)(=O)c3ccccc3F)CCN12` [Example 1, (S)-(−)2-(2-fluorophenylsulfonyl)hexahydro pyrrolo[1,2-a]pyrazin-6(7H)-one], the melting point lay within 142 to 144 °C.
Still for that read-out and setting: next, `O=C1CC[C@H]2CN(S(=O)(=O)c3cccc(F)c3)CCN12` [Example 2, (S)-(−)2-(3-fluorophenylsulfonyl)hexahydro pyrrolo[1,2-a]pyrazin-6(7H)-one]: 177 to 179 °C.
On to `O=C1CC[C@@H]2CN(S(=O)(=O)c3ccccc3F)CCN12` [Example 3, (R)-(+)2-(2-fluorophenylsulfonyl)hexahydro pyrrolo[1,2-a]pyrazin-6(7H)-one], for which the melting point was in the range of 136 to 137 °C. The “Weight borne on right hind paw” value in the series on MIA-induced hyperalgesia [1] (setting [4]) is listed as 106.9 ± 7.3 g. The “Weight borne on right hind paw” value in the series on MIA-induced hyperalgesia [1] (setting [5]) worked out at 112.1 ± 8.5 g. In addition, the “Weight borne on right hind paw” value in the series with MIA-induced hyperalgesia [1] (setting [6]) is reported as 81.8 ± 6.6 g. The “Weight borne on right hind paw” value in the series with MIA-induced hyperalgesia [1] (setting [7]) came to 41.8 ± 6.0 g. In series [2] (3 mg/kg i.v.), the “Mechanical threshold (g), After Treatment 15 min” value is 45.6 ± 3.9 g; the “Mechanical threshold (g), After Treatment 30 min” value was 53.3 ± 2.7 g; the “Mechanical threshold (g), After Treatment 45 min” value worked out at 46.2 ± 3.3 g. Further, the “Mechanical threshold (g), After Treatment 15 min” value in the series on MIA-induced hyperalgesia [3] (setting [4]) was found to be 61.3 ± 3.0 g. In the series with MIA-induced hyperalgesia [3] (setting [5]), the “Mechanical threshold (g), After Treatment 30 min” value worked out at 58.1 ± 3.7 g. For the same compound, the “Mechanical threshold (g), After Treatment 45 min” value in the series on MIA-induced hyperalgesia [3] (setting [6]) was 49.2 ± 4.1 g. The “Mechanical threshold (g), Before Treatment basal” value in the series on MIA-induced hyperalgesia [3] (setting [7]) is 21.9 ± 1.9 g.
`O=C1CC[C@@H]2CN(S(=O)(=O)c3ccc(F)c(F)c3)CCN12` [Example 5, (R)-(+)-2-(3,4-difluorophenylsulfonyl)hexahydro pyrrolo[1,2-a]pyrazin-6(7H)-one] yielded a melting point of 208 to 209 °C.
As for `Cc1ccccc1S(=O)(=O)N1CCN2C(=O)CC[C@@H]2C1` [Example 6, (R)-(+)-2-(o-tolylsulfonyl)hexahydro pyrrolo[1,2-a]pyrazin-6(7H)-one], the melting point lay within 68 to 70 °C. In addition, in series [2] (3 mg/kg i.v.), the “Mechanical threshold (g), After Treatment 15 min” value was found to be 49.4 ± 3.0 g; the “Mechanical threshold (g), After Treatment 30 min” value was 48.8 ± 2.8 g; the “Mechanical threshold (g), After Treatment 45 min” value stood at 40.7 ± 2.2 g.
For `Cc1cccc(S(=O)(=O)N2CCN3C(=O)CC[C@@H]3C2)c1` [Example 7, (R)-(+)-2-(m-tolylsulfonyl)hexahydro pyrrolo[1,2-a]pyrazin-6(7H)-one], in that order: 133 to 134 °C, 38.7 ± 2.2 g, 47.6 ± 2.4 g and 36.4 ± 2.5 g.
For `O=C1CC[C@@H]2CN(S(=O)(=O)c3cccc(C(F)(F)F)c3)CCN12` [Example 9, (R)-(+)-2-(3-(tifluoromethyl)phenylsulfonyl) hexahydropyrrolo [1,2-a]pyrazin-6(7H)-one], in that order: 172 to 174 °C, 41.6 ± 3.6 g, 44.5 ± 2.8 g and 42.9 ± 4.3 g.
`O=C1CC[C@@H]2CN(S(=O)(=O)c3ccc(C(F)(F)F)cc3)CCN12` [Example 10, (R)-(+)-2-(4-(trifluoromethyl)phenylsulfonyl) hexahydropyrrolo [1,2-a]pyrazin-6(7H)-one] came in with a melting point of 226 to 227 °C.
Compound `N#Cc1ccccc1S(=O)(=O)N1CCN2C(=O)CC[C@@H]2C1` [Example 11, (R)-2-(6-oxohexahydropyrrolo[1,2-a]pyrazin-2(1H)-ylsulfonyl) benzonitrile] came in with a melting point of 198 to 199 °C. For the same compound, in series [2] (3 mg/kg i.v.), the “Mechanical threshold (g), After Treatment 15 min” value is 45.3 ± 1.6 g; the “Mechanical threshold (g), After Treatment 30 min” value was 50.7 ± 2.3 g; the “Mechanical threshold (g), After Treatment 45 min” value is 48.4 ± 2.7 g.
In the same order, the values of `N#Cc1cccc(S(=O)(=O)N2CCN3C(=O)CC[C@@H]3C2)c1` [Example 12, (R)-3-(6-oxohexahydropyrrolo[1,2-a]pyrazin-2(1H)-ylsulfonyl) benzonitrile] are 180 to 181 °C, 39.8 ± 3.7 g, 41.5 ± 3.8 g and 39.2 ± 4.4 g.
`N#Cc1ccc(S(=O)(=O)N2CCN3C(=O)CC[C@@H]3C2)cc1` [Example 13, (R)-(+)-4-(6-oxohexahydropyrrolo[1,2-a]pyrazin-2(1H)-ylsulfonyl) benzonitrile]: the melting point fell in the range of 242 to 243 °C. For the same compound, in series [2] (1 mg/kg i.v.), the “Mechanical threshold (g), After Treatment 15 min” value is 35.6 ± 3.1 g; the “Mechanical threshold (g), After Treatment 30 min” value is on record as 39.7 ± 2.4 g; the “Mechanical threshold (g), After Treatment 45 min” value is on record as 34.8 ± 3.3 g.
`COc1cccc(S(=O)(=O)N2CCN3C(=O)CC[C@@H]3C2)c1` [Example 15, (R)-2-(3-methoxyphenylsulfonyl)hexahydro pyrrolo[1,2-a]pyrazin-6(7H)-one] came in with a melting point of 144 to 145 °C.
Still for that read-out and setting: for `O=C1CC[C@@H]2CN(S(=O)(=O)c3cccnc3)CCN12` [Example 16, (R)-2-(pyridin-3-ylsulfonyl)hexahydro pyrrolo[1,2-a]pyrazin-6(7H)-one] the value was 165 to 166 °C.
Same read-out and setting: for `O=C(c1ccccc1F)N1CCN2C(=O)CC[C@H]2C1` [Example 18, (S)-2-(2-fluorobenzoyl) hexahydropyrrolo [1,2-a]pyrazin-6(7H)-one] the value was 123 to 124 °C.
On the same count and under the same terms, next, `O=C(c1cccc(F)c1)N1CCN2C(=O)CC[C@H]2C1` [Example 19, (S)-2-(3-fluorobenzoyl) hexahydropyrrolo [1,2-a]pyrazin-6(7H)-one]: 161 to 162 °C.
In turn, `O=C(c1ccccc1F)N1CCN2C(=O)CC[C@@H]2C1` [Example 20, (R)-2-(2-fluorobenzoyl) hexahydropyrrolo [1,2-a]pyrazin-6(7H)-one] yielded a melting point of 123 to 124 °C. Moreover, in series [2] (3 mg/kg i.v.), the “Mechanical threshold (g), After Treatment 15 min” value is listed as 41.4 ± 2.3 g; the “Mechanical threshold (g), After Treatment 30 min” value was 45.7 ± 3.5 g; the “Mechanical threshold (g), After Treatment 45 min” value worked out at 35.8 ± 3.0 g.
In the same order, the values of `O=C(c1cccc(F)c1)N1CCN2C(=O)CC[C@@H]2C1` [Example 21, (R)-2-(3-fluorobenzoyl) hexahydropyrrolo [1,2-a]pyrazin-6(7H)-one] are 161 to 162 °C, 40.9 ± 3.5 g, 46.2 ± 4.3 g and 37.6 ± 4.3 g.
In the same order, the values of `Cc1ccc(N2CCN3C(=O)CCC3C2=O)cc1` (centres unmarked) [Example 24, 2-p-Tolyl-tetrahydro-pyrrolo[1,2-a]pyrazine-1,6-dione] are 115 to 117 °C, 42.2 ± 2.6 g, 43.4 ± 4.1 g and 36.5 ± 4.2 g.

What is called melting point is the temperature of the solid-liquid transition.
